Test [1] relates to spontaneous hypertensive rats (MHS). Briefly: prevention of development of hypertension in pre-hypertensive rats, indirect tail-cuff plethysmography (SBP and HR). The class given is in vivo, rat. The note with it: 5 week treatment, 20 mg/kg/os daily in 0.5% w/v Methocel; for SBP: controls 172+/-5.0; for HR: controls 380+/-6.3. How it is done:
Systolic blood pressure (SBP) and heart rate (HR) were measured by an indirect tail-cuff plethysmographic method in […] pre-hypertensive male rats, (MHS or SHR), i.e. before hypertension onset so as to register the basal value of SBP. The rats were then subdivided in groups of 7 animals each and the groups were divided in control and treated group. The compound, suspended in 0.5% (w/v) Methocel, was orally administered daily for at least five weeks. The control group received only Methocel.
SBP and HR were measured weekly, 6 and 24 hours after the treatment.
After five weeks of treatment, when the hypertension was fully developed in the control group ([…]) a one-week wash-out was conducted in order to verify whether SBP would remain low or restored to the basal values of the control group.

Test [2] deals with T1, Na^+, K^+ -ATPase (Canis lupus familiaris, UniProt P50997).
T1 construct: from tissue
Briefly: displacement of specific ^3 H-oubain binding from purified Na^+, K^+ -ATPase receptor. The source says:
(§1) To test the affinity for the receptor site of the Na^+, K^+ -ATPase and the agonist or inhibitory activity on the enzyme, the following tests were used:
a) displacement of the specific ^3 H-oubain binding from the Na^+, K^+ -ATPase receptor purified according to Jorghensen (Jorghensen P., BBA, 1974, 356, 36) and Erdamnn (Erdmann E. et al., Arzneim. Forsh, 1984, 34, 1314);

Test [3] deals with Na^+, K^+ -ATPase. The class given is biochemical. The note with it: purified Na^+, hydrolysis of ^32 P-ATP.
From the text: as §1
b) inhibition of the activity of the purified Na^+, K^+ -ATPase measured as % of hydrolysis of ^32 P-ATP in the presence and in the absence of the tested compound (Doucet A. et al., Am. J. Physiol., 1986, 251, F851).

Like-named read-outs stand apart in the source and are kept apart here.

With `CC[C@H](c1ccoc1)[C@@]1(C)CC[C@H]2[C@@H](CC[C@@H]3C[C@@H](O)CC[C@@]32C)[C@@H]1O` [Comp. I-a, 17β-(3-furyl)-14,15-seco-5βandrostan-3β,14β-diol], in test [1], the SBP was 155+/-4.3 mm Hg and the HR was 370+/-10.5 beats/min.
In general, IC50 refers to the concentration needed to halve the response being measured. Take `CC[C@H](c1ccoc1)[C@@]1(C)CC[C@H]2[C@@H](CC[C@@H]3C[C@@H](O)CC[C@@]32C)C1=O` [Comp. I-c, 17β-(3-furyl)-14-oxo-14,15-seco-5β-androstan-3β-ol]: at Na^+, K^+ -ATPase [2] (purified Na^+, K^+ -ATPase receptor, read-out: Binding ^3 H-oubain displacement -log IC50 (converted)), the IC50 was 6310 nM. Also, the “Inhibitory activity -log IC50” value at Na^+, K^+ -ATPase [3] is listed as 4.3.
At Na^+, K^+ -ATPase [2], `CC[C@H](C1=CC(=O)OC1)[C@@]1(C)CC[C@H]2[C@@H](CC[C@@H]3C[C@@H](O)CC[C@@]32C)C1=O` [Comp. I-d, 3β-hydroxy-14-oxo-14,15-seco-5β-card-20(22)-enolide] showed an IC50 of 200 nM. Further, the “Inhibitory activity -log IC50” value at Na^+, K^+ -ATPase [3] is 5.6. In addition, in test [1], the SBP was 156+/-4.6 mm Hg and the HR is 383+/-11.4 beats/min.
In the case of `CC[C@H](C1=CC(=O)OC1)[C@@]1(C)CC[C@H]2[C@@H](CC[C@@H]3C[C@@H](O)CC[C@@]32C)[C@@H]1O` [Comp. I-e, 3β,14β-dihydroxy-14,15-seco-5β-card-20(22)-enolide], the IC50 at Na^+, K^+ -ATPase [2] was 126 nM. Further, the “Inhibitory activity -log IC50” value on Na^+, K^+ -ATPase [3] is reported as 5.1.
Regarding `C[C@]12CC[C@H](O)C[C@H]1CC[C@H]1[C@H](O)[C@@](C)([C@H](CC#N)C3=CC(=O)OC3)CC[C@@H]12` [Comp. I-h, 3β,14β-dihydroxy-14,15-seco-5β-card-20(22)-enolide-15-nitrile], in test [1], the SBP is 160+/-7.8 mm Hg and the HR is listed as 377+/-10.5 beats/min.
Regarding `CN(C)CCO/N=C/C[C@H](C1=CC(=O)OC1)[C@@]1(C)CC[C@H]2[C@@H](CC[C@@H]3C[C@@H](O)CC[C@@]32C)C1=O` [Comp. I-i, 3β-hydroxy-14-oxo-14,15-seco-5β-card-20(22)-enolide-15-(2-dimethylaminoethoxy-(E)-imino)], the concentration for half-maximal inhibition (IC50) on Na^+, K^+ -ATPase [2] is 2510 nM. The “Inhibitory activity -log IC50” value on Na^+, K^+ -ATPase [3] amounted to 4.0.
Consider `CN(C)CCO/N=C\C[C@H](C1=CC(=O)OC1)[C@@]1(C)CC[C@H]2[C@@H](CC[C@@H]3C[C@@H](O)CC[C@@]32C)C1=O` [Comp. I-l, 3β-hydroxy-14-oxo-14,15-seco-5β-card-20(22)-enolide-15(2-dimethylaminoethoxy-(Z)-imino)], for which the IC50 at Na^+, K^+ -ATPase [2] was 3980 nM. Further, the “Inhibitory activity -log IC50” value at Na^+, K^+ -ATPase [3] is 4.2.
With `C[C@]12CC[C@H](O)C[C@H]1CC[C@H]1C(=O)[C@@](C)([C@H](C/C=N/NC(=N)N)C3=CC(=O)OC3)CC[C@@H]12` [Comp. I-m, 3β-hydroxy-14-oxo-14,15-seco-5β-card-20(22)enolide-15-(E)-(guanidinoimino)], the IC50 on Na^+, K^+ -ATPase [2] is 3160 nM. Besides, the “Inhibitory activity -log IC50” value at Na^+, K^+ -ATPase [3] is recorded as 4.1.

Source of the values: US5731345A, “Seco-D steroids active on the cardiovascular system and pharmaceutical compositions containing same” (Sigma-Tau Industrie Farmaceutiche Riunite S.p.A, priority 1995, dated 1998).
